Results reported in EP0435693B1, “Pharmaceutical compositions containing 3-oxygermylpropionic acid polymers for inhibiting the degeneration of cells” (SANWA KAGAKU KENKYUSHO CO., LTD., priority 1989, dated 1991).
Read-outs that look alike come from different tables or passages of the source.

Test system: SD masculine rats with hypohepatia
Type: in vivo
Settings: hepatoxic drug alone after carbon tetrachloride
Protocol: Carbon tetrachloride was administered orally as a hepatoxic substance to SD masculine rats (weighing 500 g ± 50 g; age, 10 months) with hypohepatia (3 groups containing 8-9 rats each) at a dose of 0.5 g/kg, whereby their serum GOT was increased to more than 50 Karmen units after 24 hours. At the same time, 2 mg/kg of indomethacin as a hepatoxic drug (a lenitive), 5 mg/kg of 5-FU as a hepatoxic carcinostatic and 10 mg/kg of tetracycline as a hepatoxic antibiotic were administered orally to each of the animals five times every fourth day.
An additional 20 mg/kg of the composition of Preparation Ex. 1 was administered orally to the medicated group.
Seven days after the completion of medication, the animals were slaughtered to remove the livers, which were then visually observed. Afterwards, the tissue slices were observed under an optical microscope to examine the degree of heteroplasia of the liver cells.
The GOT eluates due to cytoclasis were determined by gathering blood from the tail vein of each animal 24 hours after the administration of carbon tetrachloride, two and ten days after the initiation of medication and on the final date of experimentation.

Compound	mortality	serum GOT (2 days after the initiation of medication)	serum GOT (10 days)	serum GOT (Final Date)
O=c1[nH]cc(F)c(=O)[nH]1 [5-FU, 5-fluorouracil]	some animals died			
COc1ccc2c(c1)c(CC(=O)O)c(C)n2C(=O)c1ccc(Cl)cc1 [Indomethacin]	some animals died	81.3±4.21 Karmen units/ml	91.8±8.35 Karmen units/ml	99.4±1.43 Karmen units/ml
